According to paper PMC10987503, “Biomimetic NIR-II fluorescent proteins created from chemogenic protein-seeking dyes for multicolor deep-tissue bioimaging” (Nature Communications, 2024):
Each block holds one compound with its values, some of them ahead of it.

What was measured:
[1] = biological target: T1, human serum albumin (HSA) (Homo sapiens, UniProt P02768); assay: BLI; also HRMS, SDS-PAGE and proteomics of the covalent adduct; type: binding
T1 construct: gene ALB; full HSA; recombinant domain III (DIII) also measured

[2] = biological target: T1, human serum albumin (HSA); assay: BLI; also HRMS ([…] covalent binding) and SDS-PAGE
[3] = biological target: T1, human serum albumin (HSA); assay: BLI; also HRMS ([…] covalent binding) and SDS-PAGE; remark: listed apart in the source

T1 sequence (P02768 25-609): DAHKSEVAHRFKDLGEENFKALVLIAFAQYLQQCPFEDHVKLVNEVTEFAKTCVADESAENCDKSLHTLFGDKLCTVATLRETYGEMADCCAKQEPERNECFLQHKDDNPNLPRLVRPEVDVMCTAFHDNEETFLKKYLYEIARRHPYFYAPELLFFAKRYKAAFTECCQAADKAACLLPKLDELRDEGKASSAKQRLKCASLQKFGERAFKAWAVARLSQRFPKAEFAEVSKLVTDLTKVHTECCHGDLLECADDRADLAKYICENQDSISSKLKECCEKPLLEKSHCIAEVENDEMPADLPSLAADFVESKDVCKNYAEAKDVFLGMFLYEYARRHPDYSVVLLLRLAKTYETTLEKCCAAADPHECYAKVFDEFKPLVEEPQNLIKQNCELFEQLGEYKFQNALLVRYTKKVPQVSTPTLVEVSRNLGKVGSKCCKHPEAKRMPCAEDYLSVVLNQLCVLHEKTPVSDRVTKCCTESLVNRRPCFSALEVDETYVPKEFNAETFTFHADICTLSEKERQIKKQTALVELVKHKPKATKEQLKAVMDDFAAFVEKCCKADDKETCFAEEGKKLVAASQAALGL

- Kd [1]: ~0.00213 µM
Structure (SMILES): O=C(O)CCCCCn1/c(=C/C=C2\CCCC(/C=C/C3=[N+](CCCCCC(=O)O)c4cccc5cccc3c45)=C2Cl)c2cccc3cccc1c32 [CO-1080]

- Kd [2]: ~0.0145 µM
Structure (SMILES): CCn1/c(=C/C=C2\CCCC(/C=C/C3=[N+](CC)c4cccc5cccc3c45)=C2Cl)c2cccc3cccc1c32 [Et-1080]

- Kd [3]: ~0.0826 µM
Structure (SMILES): O=S(=O)(O)CCCCn1/c(=C/C=C2\CCCC(/C=C/C3=[N+](CCCCS(=O)(=O)O)c4cccc5cccc3c45)=C2Cl)c2cccc3cccc1c32 [FD-1080]
